# Experiments:
# [1] = test system: A2780 ovarian cancer cells; test: RNA disruption in drug-treated A2780 cells (Agilent Bioanalyzer electropherogram/gel); format: cell-based, human; details: for RNA electropherogram banding pattern: 24 hours at 37° C.; for Low C Area/(28S+18S) vs docetaxel dose: method 400
# Experimental: RNA was isolated from ovarian cancer cell line A2780 cells which had been treated with 10 μM docetaxel in 50% media or 20 μM epirubicin, each in 50% media. Cells were treated with the chemotherapeutic for 24 hours at 37° C. Isolated RNA was separated by microcapillary electrophoresis using the Agilent 2100 Bioanalyzer.
# Cells were plated and treated with docetaxel concentrations ranging from 0.001-40 μM for 24 to 72 hours to assess the effect on cell number, RNA content, and integrity (measured using a Bioanalyzer 2100 from Agilent Technologies, Inc.).
# RNA was isolated and electrophoretically separated on an Agilent Bioanalyzer. As shown in FIG. 9D bands appeared just below the 28S (e.g. intermediate) and 18S bands (e.g. low banding region) at 0.005 uM and peaked at 0.2 uM.
# A time course experiment was conducted in A2780 cells. Cells were treated for up to 72 hours with docetaxel at 0.005 uM and 0.2 uM. RNA was isolated and run on an Agilent Bioanalyzer.
# Plots of the combination of features Intermediate Area/(28S+18S) and Low C Area/(28S+18S) were generated using the method 400 although method 300 may also be used.
# [2] = test system: Colon adenocarcinoma cells SW480; test: RNA disruption in SW480 cells; format: cell-based; details: 72 hr, FIG. 20C
# Experimental: Colon adenocarcinoma cells SW480 were incubated with Epirubicin, a DNA synthesis inhibitor. RNA was isolated from the cells and analyzed using an Agilent Bioanalyzer. RNA Disruption is evident at 72 hr at […] (see FIG. 20C).
# [3] = test system: Colon adenocarcinoma cells LS174T; test: RNA disruption in LS174T cells; format: cell-based; details: 24 hr, FIG. 20A
# Experimental: Colon adenocarcinoma cells LS174T were incubated with Sunitinib, a receptor tyrosine kinase inhibitor. RNA was isolated from the cells and analyzed using an Agilent Bioanalyzer.
# RNA was isolated from the cells and analyzed using an Agilent Bioanalyzer.
# [4] = test system: Jurkat T leukemia cell line; details: Fimognari et al 2009; cited from earlier work
# [5] = test system: A2780 ovarian cancer cells; test: Effect of caspase inhibitor on RNA integrity changes in docetaxel-treated cells; format: cell-based, human; details: FIG. 9J
# Experimental: The effect of a caspase inhibitor on RNA integrity changes was next assessed. Cells were treated with or without docetaxel at a concentration of 0.2 uM in the presence or absence of the caspase inhibitor Q-DEVD-OPH (Biovision Laboratories) at a concentration of 10 uM.
# [6] = test system: tumour sample; test: Maximal RDI score in tumour biopsies of patients on neo-adjuvant Zometa; format: in vivo, human; details: after the first cycle, FIG. 17C and 17D
# Experimental: Biopsy samples were obtained from patients undergoing neo-adjuvant therapy with Zometa. RNA was isolated and analyzed using the Agilent Bioanalyzer. Electropherograms were analyzed using the methods 100 and 400 and the maximal RDI score was graphed for each tumour sample at each time-point.
# [7] = test system: A2780 ovarian cancer cells; test: Amount of RNA per cell in A2780 cells treated with docetaxel; format: cell-based, human
# Experimental: A2780 cells treated for up to 72 hours with docetaxel at 0.005 uM and 0.2 uM, were analyzed for the amount of RNA per cell. RNA was isolated and electophoretically separated using an Agilent Bioanalyzer.
# [8] = test system: A2780 cells; test: Recovery Assay after docetaxel treatment; format: cell-based, human; details: 0.2 uM docetaxel up to 72 hours, washed, replated in drug-free media, FIG. 9C
# Experimental: A Recovery Assay was next carried out to determine if A2780 cells could recover from treatment with 0.2 uM docetaxel. A2780 cells were treated with 0.2 uM docetaxel for up to 72 hours and then washed and replated in drug-free media.
# [9] = test system: docetaxel-resistant A2780DXL cells; test: RNA disruption in docetaxel-resistant A2780 cells; format: cell-based, human
# Experimental: A docetaxel A2780 resistant cell line was made as described in Li et al., Int. J. Mol. Med 2004 14(20): 257-264.
# A time course experiment was conducted. Sensitive parental and docetaxel resistant A2780 cells were treated with docetaxel for 24 hours. RNA was isolated and run on an Agilent Bioanalyzer.
# [10] = test system: xenograft tumours; test: RNA from docetaxel-treated xenograft tumours after storage in liquid nitrogen or saline (Agilent 2100 Bioanalyzer); format: in vivo; design: 18S Area / 28S Area / RNA Area: unit not given here
# Experimental: RNA isolated from xenograft tumours stored in liquid nitrogen, RNALater™ solution or left in saline for 1h, 2h, 5h and 24h to induce autocatalytic degradation was analyzed by measuring an RNA Integrity Number (RIN) using Agilent 2100 Bioanalyzer. […] Circles above the gel lanes indicate that an RIN number could be calculated (FIG. 8A). Circles encapsulated by squares indicate samples for which an RIN number could not be calculated. Control samples were untreated xenograft tumours (1-7). Treated samples (8-12) were given docetaxel. Various measurements for the data shown in FIGS. 8B-8M follow in Tables 3.1 to 3.12.
# [11] = test system: A2780 ovarian cancer cells; test: Cell counts of A2780 cells treated with docetaxel; details: up to 72 hours, FIG. 9A
# Experimental: A2780 cells were treated for up to 72 hours with docetaxel at 0.005 uM and 0.2 uM. Cell counts were measured at each time-point.
# [12] = tumour left in saline 1h, sample 9
# [13] = tumour left in saline 2h, sample 10
# [14] = tumour left in saline 5h, sample 11
# [15] = tumour left in saline 24h, sample 12
# [16] = tumour stored in liquid nitrogen, sample 8
compound,measurement,setting,value
COc1cccc2c1C(=O)c1c(O)c3c(c(O)c1C2=O)C[C@@](O)(C(=O)CO)C[C@@H]3O[C@H]1C[C@H](N)[C@@H](O)[C@H](C)O1 [epirubicin],RNA electropherogram banding pattern,"[1]; epirubicin 20 μM in 50% media, FIG. 3",intermediate bands between the 18S and 28S peaks
same,concentration at which RNA Disruption is evident,[2],0.5 mM
CCN(CC)CCNC(=O)c1c(C)[nH]c(/C=C2\C(=O)Nc3ccc(F)cc32)c1C [Sunitinib],concentration at which RNA Disruption is evident,[3],54 mM
COc1cccc2c1C(=O)c1c(O)c3c(c(O)c1C2=O)C[C@@](O)(C(=O)CO)C[C@@H]3O[C@H]1C[C@H](N)[C@H](O)[C@H](C)O1 [doxorubicin],susceptibility of total RNA to chemical attack,[4],susceptible to chemical attack
Q-DEVD-OPH,bands below the 28S and 18S bands,[5]; 0.2 uM docetaxel with or without 10 uM caspase inhibitor,detectable in the presence and absence
same,effect on loss of 28S and 18S bands,"[5]; 10 uM inhibitor with 0.2 uM docetaxel, 72 hr",reduces the loss of 28S and 18S bands
O=P(O)(O)C(O)(Cn1ccnc1)P(=O)(O)O [Zometa],RDI values,[6],increased in some patients
CC(=O)O[C@@]12CO[C@@H]1C[C@H](O)[C@@]1(C)C(=O)[C@H](O)C3=C(C)[C@@H](OC(=O)[C@H](O)[C@@H](NC(=O)OC(C)(C)C)c4ccccc4)C[C@@](O)([C@@H](OC(=O)c4ccccc4)[C@H]21)C3(C)C [docetaxel],Low C Area/(28S+18S) vs docetaxel dose,"[1]; 8 hr, 24 hr, or 48 hr",Little change
same,docetaxel concentration at which banding below 28S and 18S peaked,"[1]; 24 hours, 0 to 40 uM, FIG. 9D",0.2 µM
same,docetaxel concentration at which bands appeared just below the 28S and 18S bands,"[1]; 24 hours, 0 to 40 uM, FIG. 9D",0.005 µM
same,docetaxel concentration at which additional bands are visible on gel,"[1]; FIG. 9D, 24 hours",0.05 µM
same,docetaxel concentrations giving dose and time-dependent reductions in cell number and cell RIN values while RDI increased,[1]; RDI = Intermediate Area/(28S+18S),≥ 0.1 µM
same,Low C Area/(28S+18S) vs docetaxel dose,[1]; after 72 hr,dramatic increase
same,Intermediate/(28S+18S),"[1]; docetaxel 0.005 uM and 0.2 uM, 24 to 72 hours, FIG. 9F",increases dramatically with time
same,Low banding area/(28S+18S),"[1]; docetaxel 0.005 uM and 0.2 uM, 24 to 72 hours, FIG. 9G",also increases with time
same,RNA banding in time course,"[1]; docetaxel 0.005 uM and 0.2 uM, up to 72 hours, FIG. 9H",banding appears below the 28S and 18S bands at all time-points
same,RNA electropherogram banding pattern,"[1]; docetaxel 10 μM in 50% media, FIG. 2",shows an intermediate peak and a peak adjacent to the 18S peak
same,RIN,[1]; docetaxel concentrations ≥0.005 uM,did not change significantly
same,docetaxel concentration at which banding appears below the 28S and 18S bands,"[1]; sensitive parental cells, 24 hours, FIG. 9I",0.005 µM
same,amount of RNA per cell,"[7]; docetaxel 0.005 uM and 0.2 uM, up to 72 hours, FIG. 9B",increase in a time-dependent and dose-dependent manner
same,RNA content per cell,[7]; low docetaxel concentrations,increased per cell
same,resumption of cell proliferation after drug withdrawal,[8],No resumption of cell proliferation
same,RNA disruption and cellular RNA content,[9]; A2780DXL cells treated with docetaxel,did not result in RNA disruption or changes in cellular RNA content
same,RNA banding below the 28S and 18S bands,"[9]; resistant cells, docetaxel 24 hours, FIG. 9I",no banding is evident
same,18S % of total Area,[10]; [12],8.3%
same,18S Area,[10]; [12],13.2
same,28S % of total Area,[10]; [12],6.4%
same,28S Area,[10]; [12],10.2
same,RNA Area,[10]; [12],158.5
same,RNA Concentration,[10]; [12],85 ng/µL
same,rRNA Ratio [28 s/18 s],[10]; [12],0.8
same,18S % of total Area,[10]; [13],9.8%
same,18S Area,[10]; [13],27.3
same,28S % of total Area,[10]; [13],6.6%
same,28S Area,[10]; [13],18.5
same,RNA Area,[10]; [13],278.5
same,RNA Concentration,[10]; [13],150 ng/µL
same,RNA Integrity Number (RIN),[10]; [13],6.5 (B.02.06)
same,RNA Ratio [28 s/18 s],[10]; [13],0.7
same,18S % of total Area,[10]; [14],6.5%
same,18S Area,[10]; [14],15.4
same,28S % of total Area,[10]; [14],6.6%
same,28S Area,[10]; [14],15.4
same,RNA Area,[10]; [14],235.4
same,RNA Concentration,[10]; [14],127 ng/µL
same,rRNA Ratio [28 s/18 s],[10]; [14],1.0
same,18S % of total Area,[10]; [15],1.1%
same,18S Area,[10]; [15],1.9
same,RNA Area,[10]; [15],168.9
same,RNA Concentration,[10]; [15],91 ng/µL
same,RNA Integrity Number (RIN),[10]; [15],2.7 (B.02.06)
same,rRNA Ratio [28 s/18 s],[10]; [15],0.0
same,18S % of total Area,[10]; [16],18.4%
same,18S Area,[10]; [16],46.1
same,28S % of total Area,[10]; [16],21.8%
same,28S Area,[10]; [16],54.6
same,RNA Area,[10]; [16],250.5
same,RNA Concentration,[10]; [16],135 ng/µL
same,RNA Integrity Number (RIN),[10]; [16],9.1 (B.02.06)
same,rRNA Ratio [28 s/18 s],[10]; [16],1.2
same,docetaxel concentrations at which cell numbers remained constant,[11],greater than or equal to 0.005 uM
